The source of these data is patent US20090082203A1, “INSECTICIDAL BIS(SUBSTITUTED PHENYL)-1-{[4-(SATURATED HETEROCYCLYL-SUBSTITUTED)PHENYLMETHYL]- (4-PIPERIDYL)}METHANE DERIVATIVES” (priority 2004, published 2009).

This data set relates to tobacco budworm (Heliothis virescens [Fabricius]). Put plainly: surface-treated diet test against tobacco budworm. The data set is classed as in vivo. The conditions noted are these: for Percent Growth Inhibition: inhibition of insect weight relative to untreated controls. How it is done:
Candidate insecticides were evaluated for activity against the tobacco budworm (Heliothis virescens [Fabricius]) in a surface-treated diet test.
In this test one mL of molten (65-70° C.) wheat germ-based artificial diet was pipetted into each well of a four by six (24 well) multi-well plate (ID# 430345-15.5 mm dia.×17.6 mm deep; Corning Costar Corp., One Alewife Center, Cambridge, Mass. 02140). The diet was allowed to cool to ambient temperature before treatment with candidate insecticide.
For a determination of insecticidal activity, solutions of the candidate insecticides were prepared for testing using a Packard 204DT Multiprobe® Robotic System (Packard Instrument Company, 800 Research Parkway, Meriden, Conn. 06450), in which the robot first diluted a standard 50 millimolar DMSO solution of candidate insecticide with a 1:1 water/acetone solution (V/V) in a ratio of 1:7 stock solution to water/acetone. The robot subsequently pipetted 40 microliters of the so-prepared solution onto the surface of the diet in each of three wells in the 24 multi-well plate. The process was repeated with solutions of seven other candidate insecticides. Once treated, the contents of the multi-well plate were allowed to dry, leaving 0.25 millimoles of candidate insecticide on the surface of the diet, or a concentration of 0.25 millimolar. Appropriate untreated controls containing only DMSO on the diet surface were also included in this test.
For evaluations of the insecticidal activity of a candidate insecticide at varying rates of application, the test was established as described above using sub-multiples of the standard 50 millimolar DMSO solution of candidate insecticide. For example, the standard 50 millimolar solution was diluted by the robot with DMSO to give 5, 0.5, 0.05, 0.005, 0.0005 millimolar, or more dilute solutions of the candidate insecticide. In these evaluations there were six replicates of each rate of application placed on the surface of the diet in the 24 multi-well plate, for a total of four rates of application of candidate insecticide in each plate.
In each well of the test plate was placed one second instar tobacco budworm larvae, each weighing approximately five milligrams. After the larvae were placed in each well, the plate was sealed with clear polyfilm adhesive tape. The tape over each well was perforated to ensure an adequate air supply. The plates were then held in a growth chamber at 25° C. and 60% relative humidity for five days (light 14 hours/day).
After the five-day exposure period insecticidal activity for each rate of application of candidate insecticide was assessed as percent inhibition of insect weight relative to the weight of insects from untreated controls, and percent mortality when compared to the total number of insects infested.
The test compounds of formula I are identified by numbers that correspond to those in Table 1.

Setting [1] is: 0.25 millimolar on the surface of the diet, second instar larvae, five-day exposure, compared to the total number of insects infested.
Where [2] appears, read: 0.25 millimolar on the surface of the diet, second instar larvae, five-day exposure.

Consider `OC(c1ccc(OC(F)(F)F)cc1)(c1ccc(OC(F)(F)F)cc1)C1CCN(Cc2ccc(C3O[C@H]4CCCC[C@H]4O3)cc2)CC1` (stereo partly drawn) [Compound 115], for which, under setting [1], the “Percent Mortality” value came out at 100%. Also, the “Percent Growth Inhibition” value under setting [2] was 100%.

For the compound `OC(c1ccc(OC(F)(F)F)cc1)(c1ccc(OC(F)(F)F)cc1)C1CCN(Cc2ccc(C3O[C@H]4COC[C@H]4O3)cc2)CC1` (stereo partly drawn) [Compound 116], the “Percent Mortality” value under setting [1] turned out to be 100%. Moreover, under setting [2], the “Percent Growth Inhibition” value came to 100%.

For `[O-][N+]1(Cc2ccc(C3O[C@H]4CCCC[C@H]4O3)cc2)CCC(C(O)(c2ccc(OC(F)(F)F)cc2)c2ccc(OC(F)(F)F)cc2)CC1` (stereo partly drawn) [Compound 117], the “Percent Mortality” value under setting [1] is 100%. In addition, under setting [2], the “Percent Growth Inhibition” value was 100%.

For `[O-][N+]1(Cc2ccc(C3O[C@H]4COC[C@H]4O3)cc2)CCC(C(O)(c2ccc(OC(F)(F)F)cc2)c2ccc(OC(F)(F)F)cc2)CC1` (stereo partly drawn) [Compound 118], the “Percent Mortality” value under setting [1] is 100%. Also, the “Percent Growth Inhibition” value under setting [2] is given as 100%.

As for `OC(c1ccc(OC(F)(F)F)cc1)(c1ccc(OC(F)(F)F)cc1)C1CCN(Cc2ccc(C3O[C@H]4CCC[C@H]4O3)cc2)CC1` (stereo partly drawn) [Compound 119], the “Percent Mortality” value under setting [1] is on record as 100%. Moreover, the “Percent Growth Inhibition” value under setting [2] is recorded as 100%.

As for `CC1OC(c2ccc(CN3CCC(C(O)(c4ccc(OC(F)(F)F)cc4)c4ccc(OC(F)(F)F)cc4)CC3)cc2)OC1C` (stereo not drawn) [Compound 121], under setting [1], the “Percent Mortality” value was 100%. Moreover, under setting [2], the “Percent Growth Inhibition” value is 100%.

Regarding `CC1(C)OC(c2ccc(CN3CCC(C(O)(c4ccc(OC(F)(F)F)cc4)c4ccc(OC(F)(F)F)cc4)CC3)cc2)OC1(C)C` [Compound 122], under setting [1], the “Percent Mortality” value was found to be 100%. Besides, under setting [2], the “Percent Growth Inhibition” value is 100%.

`[O-][N+]1(Cc2ccc(C3O[C@H]4CCC[C@H]4O3)cc2)CCC(C(O)(c2ccc(OC(F)(F)F)cc2)c2ccc(OC(F)(F)F)cc2)CC1` (stereo partly drawn) [Compound 123]: under setting [1], the “Percent Mortality” value came out at 100%. The “Percent Growth Inhibition” value under setting [2] was found to be 100%.

In the case of `CC1(C)OC(c2ccc(C[N+]3([O-])CCC(C(O)(c4ccc(OC(F)(F)F)cc4)c4ccc(OC(F)(F)F)cc4)CC3)cc2)OC1(C)C` (stereo not drawn) [Compound 126], under setting [1], the “Percent Mortality” value turned out to be 100%. For the same compound, the “Percent Growth Inhibition” value under setting [2] was 100%.

`OC(c1ccc(OC(F)(F)F)cc1)(c1ccc(OC(F)(F)F)cc1)C1CCN(Cc2ccc(C3OC4CCCCC4O3)cc2)CC1` (stereo not drawn) [Compound 127]: under setting [1], the “Percent Mortality” value was determined as 100%. For the same compound, under setting [2], the “Percent Growth Inhibition” value turned out to be 100%.

Consider `OC(c1ccc(Cl)c(Cl)c1)(c1ccc(Cl)c(Cl)c1)C1CCN(Cc2ccc(C3OCCO3)cc2)CC1` [Compound 145], for which the “Percent Mortality” value under setting [1] was determined as 100%. Besides, under setting [2], the “Percent Growth Inhibition” value came out at 100%.

Turning to `Cc1cc(CN2CCC(C(O)(c3ccc(OC(F)(F)F)cc3)c3ccc(OC(F)(F)F)cc3)CC2)ccc1C1OCCO1` [Compound 169], the “Percent Growth Inhibition” value under setting [2] was determined as 100%. For the same compound, the “Percent Mortality” value (in vivo) is given as 100%.

As for `Cc1cc(C[N+]2([O-])CCC(C(O)(c3ccc(OC(F)(F)F)cc3)c3ccc(OC(F)(F)F)cc3)CC2)ccc1C1OCCO1` (stereo not drawn) [Compound 170], the “Percent Growth Inhibition” value under setting [2] stood at 100%. The “Percent Mortality” value (in vivo) stood at 100%.

For `OC(c1ccc(OC(F)(F)F)cc1)(c1ccc(OC(F)(F)F)cc1)C1CCN(Cc2ccc(C3OCCO3)c(Cl)c2)CC1` [Compound 171], under setting [1], the “Percent Mortality” value amounted to 100%. Besides, under setting [2], the “Percent Growth Inhibition” value turned out to be 100%.

Take `OC(c1ccc(OC(F)(F)F)cc1)(c1ccc(OC(F)(F)F)cc1)C1CCN(Cc2ccc(C3OCCO3)c(C(F)(F)F)c2)CC1` [Compound 172]: the “Percent Mortality” value under setting [1] was 100%. For the same compound, the “Percent Growth Inhibition” value under setting [2] is given as 100%.

`OC(c1ccc(OC(F)(F)F)cc1)(c1ccc(OC(F)(F)F)cc1)C1CCN(Cc2ccc(C3OCCO3)c(F)c2)CC1` [Compound 173]: the “Percent Mortality” value under setting [1] is 100%. In addition, the “Percent Growth Inhibition” value under setting [2] came to 100%.

Consider `[O-][N+]1(Cc2ccc(C3OCCO3)c(F)c2)CCC(C(O)(c2ccc(OC(F)(F)F)cc2)c2ccc(OC(F)(F)F)cc2)CC1` (stereo not drawn) [Compound 175], for which the “Percent Mortality” value under setting [1] amounted to 100%. In addition, the “Percent Growth Inhibition” value under setting [2] was 100%.

On to `CC1COC(c2ccc(CN3CCC(C(O)(c4ccc(Cl)c(Cl)c4)c4ccc(Cl)c(Cl)c4)CC3)cc2)O1` (stereo not drawn) [Compound 176], for which the “Percent Mortality” value under setting [1] came out at 100%. Also, the “Percent Growth Inhibition” value under setting [2] came out at 100%.

Consider `CC1COC(c2ccc(C[N+]3([O-])CCC(C(O)(c4ccc(Cl)c(Cl)c4)c4ccc(Cl)c(Cl)c4)CC3)cc2)O1` (stereo not drawn) [Compound 177], for which, under setting [1], the “Percent Mortality” value is on record as 100%. The “Percent Growth Inhibition” value under setting [2] turned out to be 100%.

With `CC1COC(c2ccc(CN3CCC(C(c4ccc(OC(F)(F)F)cc4)c4ccc(OC(F)(F)F)cc4)CC3)cc2)O1` (stereo not drawn) [Compound 178], the “Percent Mortality” value under setting [1] is 100%. The “Percent Growth Inhibition” value under setting [2] is 100%.

Turning to `CC1COC(c2ccc(CN3CCC(C(O)(c4ccc(OC(F)(F)F)cc4)c4ccc(OC(F)(F)F)cc4)CC3)cc2F)O1` (stereo not drawn) [Compound 179], the “Percent Mortality” value under setting [1] amounted to 100%. Moreover, the “Percent Growth Inhibition” value under setting [2] was 100%.

Regarding `CC1COC(c2ccc(C[N+]3([O-])CCC(C(O)(c4ccc(OC(F)(F)F)cc4)c4ccc(OC(F)(F)F)cc4)CC3)cc2F)O1` (stereo not drawn) [Compound 180], the “Percent Mortality” value under setting [1] worked out at 100%. Further, the “Percent Growth Inhibition” value under setting [2] is given as 100%.

Take `[O-][N+]1(Cc2ccc(C3OCCO3)c(Cl)c2)CCC(C(O)(c2ccc(OC(F)(F)F)cc2)c2ccc(OC(F)(F)F)cc2)CC1` (stereo not drawn) [Compound 181]: the “Percent Mortality” value under setting [1] was 100%. In addition, the “Percent Growth Inhibition” value under setting [2] worked out at 100%.

For the compound `[O-][N+]1(Cc2ccc(C3OCCO3)c(C(F)(F)F)c2)CCC(C(O)(c2ccc(OC(F)(F)F)cc2)c2ccc(OC(F)(F)F)cc2)CC1` (stereo not drawn) [Compound 182], the “Percent Mortality” value under setting [1] was found to be 100%. In addition, the “Percent Growth Inhibition” value under setting [2] was found to be 100%.

On to `OC(c1ccc(OC(F)(F)F)cc1)(c1ccc(OC(F)(F)F)cc1)C1CCN(Cc2ccc(CC3OCCO3)cc2)CC1` [Compound 183], for which, under setting [1], the “Percent Mortality” value was determined as 100%. Besides, under setting [2], the “Percent Growth Inhibition” value is on record as 100%.

Regarding `[O-][N+]1(Cc2ccc(CC3OCCO3)cc2)CCC(C(O)(c2ccc(OC(F)(F)F)cc2)c2ccc(OC(F)(F)F)cc2)CC1` (stereo not drawn) [Compound 184], the “Percent Mortality” value under setting [1] is 100%. Moreover, the “Percent Growth Inhibition” value under setting [2] was determined as 100%.

`[O-][N+]1(Cc2ccc(OCC3(c4ccccc4)OCCO3)cc2)CCC(C(O)(c2ccc(OC(F)(F)F)cc2)c2ccc(OC(F)(F)F)cc2)CC1` (stereo not drawn) [Compound 185]: the “Percent Mortality” value under setting [1] is listed as 100%. Further, the “Percent Growth Inhibition” value under setting [2] was 100%.

Regarding `OC(c1ccc(OC(F)(F)F)cc1)(c1ccc(OC(F)(F)F)cc1)C1CCN(Cc2ccc(OCC3(c4ccccc4)OCCO3)cc2)CC1` [Compound 186], under setting [1], the “Percent Mortality” value is 100%. Also, the “Percent Growth Inhibition” value under setting [2] is reported as 100%.

With `OC(c1ccc(OC(F)(F)F)cc1)(c1ccc(OC(F)(F)F)cc1)C1CCN(Cc2ccc(OCC3OCCO3)cc2)CC1` [Compound 187], the “Percent Mortality” value under setting [1] turned out to be 100%. Besides, the “Percent Growth Inhibition” value under setting [2] turned out to be 100%.

`[O-][N+]1(Cc2ccc(OCC3OCCO3)cc2)CCC(C(O)(c2ccc(OC(F)(F)F)cc2)c2ccc(OC(F)(F)F)cc2)CC1` (stereo not drawn) [Compound 188]: the “Percent Mortality” value under setting [1] is recorded as 100%. Also, the “Percent Growth Inhibition” value under setting [2] worked out at 100%.

On to `CC1(C)OCC(COc2ccc(CN3CCC(C(O)(c4ccc(OC(F)(F)F)cc4)c4ccc(OC(F)(F)F)cc4)CC3)cc2)O1` (stereo not drawn) [Compound 189, bis[4-(trifluoromethoxy)-phenyl][1-({4-[(2,2-dimethyl(1,3-dioxolan-4-yl))methoxy]phenyl}methyl)(4-piperidyl)]methan-1-ol], for which the “Percent Mortality” value under setting [1] is reported as 100%. For the same compound, the “Percent Growth Inhibition” value under setting [2] amounted to 100%.

With `CC1(C)OCC(COc2ccc(C[N+]3([O-])CCC(C(O)(c4ccc(OC(F)(F)F)cc4)c4ccc(OC(F)(F)F)cc4)CC3)cc2)O1` (stereo not drawn) [Compound 190, bis[4-(trifluoromethoxy)phenyl][1-({4-[(2,2-dimethyl-(1,3-dioxolan-4-yl))methoxy]phenyl}methyl)(4-piperidyl)]methan-1-ol, N-oxide], under setting [1], the “Percent Mortality” value came to 100%. Also, under setting [2], the “Percent Growth Inhibition” value was determined as 100%.

As for `COc1ccc(C2(COc3ccc(C[N+]4([O-])CCC(C(O)(c5ccc(OC(F)(F)F)cc5)c5ccc(OC(F)(F)F)cc5)CC4)cc3)OCCO2)cc1` (stereo not drawn) [Compound 191], under setting [1], the “Percent Mortality” value is recorded as 100%. Moreover, under setting [2], the “Percent Growth Inhibition” value is recorded as 100%.
